Assays:
[1] = test system: human neural progenitor cells (NHNP); format: cell-based
[2] = test system: WT mouse-derived neural stem cells; format: cell-based

ω-conotoxin GVIA
differentiation after passaging with inhibitor [1]: many cells differentiate into Tuj-1 (class III β-tubulin)-positive nerve cells and some cells differentiate into GFAP (grail fibrillary acidic protein)-positive astrocytes | differentiation after passaging with inhibitor [2]: differentiation into Tuj-1 (class III β-tubulin)-positive nerve cells and GFAP (grail fibrillary acidic protein)-positive astrocytes could be confirmed
